Consider 6 molecules from PubChem BioAssay (NCI).

Several values for one entry are separate records, joined by “and”; a condition that tells them apart may be missing. Identical values can stand only once.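 Where inhibition never reached the appropriate level, the endpoint shown equals the highest concentration tested. Otherwise, values were interpolated linearly from a five-concentration, 48-hour dose response in 96-well plates. The concentration for 50% growth inhibition is given as GI50. At the TGI there is no net growth.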

Among the test systems are SW-620 colon; HL-60(TB) leukemia; UACC-257 melanoma; MCF7 breast; HCT-116 colon; RXF 393 renal; CCRF-CEM leukemia; OVCAR-5 ovarian; NCI-H522 lung; RPMI-8226 leukemia.
Experiment in all cases: DTP human tumour cell line panel, 48 h

As usually defined, the GI50 is the concentration that inhibits growth by half. Broadly, the TGI is the concentration at which net growth stops. Read a high TGI as less potent growth arrest.

In the case of `COc1ccc(-c2ccc(=O)oc2C#Cc2cc(OC)c(OC)c(OC)c2)cc1O`, the 50% growth inhibitory concentration (GI50) in the test on SW-620 colon is 0.15 µM; in the test with HL-60(TB) leukemia it was 0.316 µM; in the test on UACC-257 melanoma it was 0.857 µM; with MCF7 breast it was 0.12 µM; with HCT-116 colon, 0.249 µM; with RXF 393 renal, 0.0813 µM. In addition, the concentration for 50% growth inhibition (GI50) was 0.331 µM with CCRF-CEM leukemia, 2.49 µM in the test on OVCAR-5 ovarian, 0.172 µM with NCI-H522 lung and 0.23 µM with RPMI-8226 leukemia. The concentration for total growth inhibition (TGI) in the test on SW-620 colon is > 100 µM; with HL-60(TB) leukemia, > 100 µM; with UACC-257 melanoma, > 37.3 µM; in the test on MCF7 breast, > 100 µM; with HCT-116 colon, > 91.9 µM; in the test on RXF 393 renal, 2.39 µM. The TGI in the test with CCRF-CEM leukemia is > 100 µM; with OVCAR-5 ovarian, 33.9 µM; in the test on NCI-H522 lung it was 0.852 µM.
Regarding `CCCC(=O)Nc1cn(COC)c(C(=O)N2C[C@@H]3C[C@]34C2=CC(=O)c2[nH]cc(C)c24)n1`, the concentration for total growth inhibition (TGI) in the test on SW-620 colon is 50 µM and 47.7 µM; in the test with HL-60(TB) leukemia it was 4.9 µM; with UACC-257 melanoma it was 23.5 µM and 27.7 µM; in the test on MCF7 breast, 50 µM and 11.6 µM; in the test with HCT-116 colon, 50 µM and 82.4 µM; in the test on RXF 393 renal it was 16.5 µM and 4.67 µM. Moreover, the TGI in the test on OVCAR-5 ovarian is 50 µM and 9.52 µM; in the test on NCI-H522 lung, 13.5 µM and 4 µM; with RPMI-8226 leukemia it was 41.5 µM and 6.75 µM. Also, the GI50 in the test on UACC-257 melanoma was 13.3 µM; in the test on RXF 393 renal it was 2.21 µM; in the test on CCRF-CEM leukemia it was 1.96 µM; in the test with OVCAR-5 ovarian, 3.3 µM; in the test on RPMI-8226 leukemia, 1.87 µM.
For the molecule `COc1cc(N=Nc2ccc(O)c3ncccc23)c2ncccc2c1`, the GI50 was 3.86 µM with SW-620 colon; 2.47 µM in the test with HL-60(TB) leukemia; 10.9 µM with UACC-257 melanoma; 2.18 µM with MCF7 breast; 2.56 µM in the test on HCT-116 colon; 2.72 µM in the test with RXF 393 renal. Moreover, the GI50 in the test on CCRF-CEM leukemia was 0.459 µM; with OVCAR-5 ovarian, 7.3 µM; in the test with NCI-H522 lung, 4.26 µM; with RPMI-8226 leukemia, 2.97 µM. Also, the total growth inhibition concentration (TGI) was > 100 µM with SW-620 colon; 9.16 µM in the test on HL-60(TB) leukemia; > 100 µM in the test on UACC-257 melanoma; > 100 µM with MCF7 breast; > 100 µM with HCT-116 colon; 28.2 µM in the test with RXF 393 renal. For the same molecule, the TGI with CCRF-CEM leukemia, with OVCAR-5 ovarian, in the test with NCI-H522 lung and with RPMI-8226 leukemia was > 100 µM in each case.
As for `CCN1CCN(c2cc(C)c3cc(NC(=O)c4ccc(OC)c(OC)c4)ccc3n2)CC1`, the GI50 in the test on SW-620 colon was 4.21 µM; in the test on HL-60(TB) leukemia, 4.19 µM; in the test with UACC-257 melanoma, > 40.4 µM; with MCF7 breast, 0.572 µM; in the test with HCT-116 colon it was 3.16 µM; with RXF 393 renal, 2.81 µM. In addition, the GI50 was > 43.1 µM with CCRF-CEM leukemia, 15.7 µM in the test on OVCAR-5 ovarian, 0.485 µM with NCI-H522 lung and 2.68 µM in the test on RPMI-8226 leukemia. Further, the total growth inhibition concentration (TGI) in the test with SW-620 colon is > 42.3 µM; in the test with HL-60(TB) leukemia, > 44.8 µM; with UACC-257 melanoma, > 58.9 µM; in the test on MCF7 breast it was > 100 µM; in the test on HCT-116 colon it was > 100 µM; in the test on RXF 393 renal it was > 100 µM. The concentration for total growth inhibition (TGI) with CCRF-CEM leukemia was > 100 µM; with OVCAR-5 ovarian it was > 100 µM; with NCI-H522 lung, 16.9 µM; with RPMI-8226 leukemia, 29.4 µM.
Turning to `CC(=O)ON1CCCC(P(=O)(OCCSC(=O)C(C)(C)C)OCCSC(=O)C(C)(C)C)C1=O` (stereo not drawn), the GI50 was 1.59 µM in the test on SW-620 colon; 1.68 µM with HL-60(TB) leukemia; 6.9 µM with UACC-257 melanoma; 2.01 µM in the test on MCF7 breast; 0.613 µM in the test with HCT-116 colon; 0.764 µM in the test on RXF 393 renal. Besides, the GI50 in the test on CCRF-CEM leukemia was 0.283 µM; in the test with OVCAR-5 ovarian, 6.46 µM; with NCI-H522 lung, 0.659 µM; with RPMI-8226 leukemia, 1.45 µM. Further, the TGI in the test with SW-620 colon was > 100 µM; in the test with HL-60(TB) leukemia, 11.3 µM; with UACC-257 melanoma, 81.1 µM; in the test on MCF7 breast it was 47.5 µM; with HCT-116 colon, 12.7 µM; in the test with RXF 393 renal it was 7.02 µM. Besides, the TGI was 67.4 µM in the test with CCRF-CEM leukemia, > 100 µM in the test on OVCAR-5 ovarian, 20.9 µM with NCI-H522 lung and 11.3 µM in the test with RPMI-8226 leukemia.
Regarding `O=C(NC[C@H](O)CN1CCc2ccccc2C1)c1cc(NC2COC2)ncn1`, the GI50 in the test on SW-620 colon is 11 µM; with HL-60(TB) leukemia it was 20.3 µM; with UACC-257 melanoma, 19.8 µM; in the test with MCF7 breast, 3.93 µM; in the test with HCT-116 colon it was 22.7 µM; with RXF 393 renal, 2.31 µM. Further, the GI50 in the test on CCRF-CEM leukemia was 26.9 µM; in the test with OVCAR-5 ovarian it was 36.8 µM; in the test with NCI-H522 lung it was 23 µM; with RPMI-8226 leukemia it was 4.22 µM. Also, the concentration for total growth inhibition (TGI) is 61.7 µM in the test with SW-620 colon; 60.5 µM in the test with HL-60(TB) leukemia; 90.4 µM in the test on UACC-257 melanoma; > 100 µM in the test on MCF7 breast; > 100 µM with HCT-116 colon; 12.9 µM with RXF 393 renal. Also, the TGI with CCRF-CEM leukemia is > 100 µM; in the test on OVCAR-5 ovarian, > 100 µM; in the test with NCI-H522 lung, 68.3 µM; in the test with RPMI-8226 leukemia it was 43.5 µM.
